Measurements: PubChem BioAssay (NCI)
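GI50 is the concentration that inhibits growth by half. TGI: concentration producing complete growth inhibition.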

Experiments:
Test in all cases: NCI tumour cell line growth inhibition, 384-well format
[1] = system: NCI-H23 lung
[2] = system: NCI-H460 NSCLC
[3] = system: HOP-62 NSCLC
[4] = system: MDA-MB-231 breast
[5] = system: CCRF-CEM leukemia
[6] = system: SF-539 CNS
[7] = system: T-47D breast
[8] = system: MDA-MB-468 breast
[9] = system: M14 melanoma
[10] = system: SF-268 CNS
[11] = system: KM12 colon
[12] = system: 786-0 renal
[13] = system: SK-OV-3 ovarian
[14] = system: SNB-75 CNS
[15] = system: ACHN renal
[16] = system: HCC-2998 colon
[17] = system: MALME-3M melanoma
[18] = system: SF-295 CNS
[19] = system: MDA-MB-435 melanoma
[20] = system: HCT-116 colon
[21] = system: UACC-257 melanoma
[22] = system: NCI-H522 lung
[23] = system: UACC-62 melanoma
[24] = system: K-562 leukemia
[25] = system: NCI/ADR-RES ovarian
[26] = system: RXF 393 renal
[27] = system: OVCAR-5 ovarian
[28] = system: IGROV1 ovarian
[29] = system: LOX IMVI melanoma
[30] = system: BT-549 breast
[31] = system: SW-620 colon
[32] = system: OVCAR-3 ovarian
[33] = system: PC-3 prostate
[34] = system: RPMI-8226 leukemia
[35] = system: NCI-H226 lung
[36] = system: SK-MEL-2 melanoma
[37] = system: SK-MEL-5 melanoma
[38] = system: A549 NSCLC
[39] = system: MOLT-4 leukemia
[40] = system: HS 578T breast
[41] = system: HOP-92 NSCLC
[42] = system: TK-10 renal
[43] = system: OVCAR-4 ovarian
[44] = system: SNB-19 CNS
[45] = system: HL-60(TB) leukemia
[46] = system: U251 glioblastoma
[47] = system: EKVX NSCLC

In the case of `[2H]c1nc(C)nc([2H])c1-c1cc(NC[C@@H](C)c2cccc3c(C(=O)NC)ccnc23)ncn1`, the GI50 [1] is reported as over 100 µM, the TGI [1] is reported as over 100 µM and the GI50 [2] is reported as over 100 µM. The TGI [2] was over 100 µM, the GI50 [3] was over 100 µM and the TGI [3] was over 100 µM. For the same molecule, the GI50 [4] was over 100 µM, the TGI [4] was over 100 µM and the GI50 [5] was over 100 µM. The TGI [5] was over 100 µM, the GI50 [6] was over 100 µM and the TGI [6] was over 100 µM. For the same molecule, the GI50 [7] was over 100 µM, the TGI [7] was over 100 µM and the GI50 [8] was over 100 µM. For the same molecule, the TGI [8] was over 100 µM, the GI50 [9] was over 100 µM and the TGI [9] was over 100 µM. The GI50 [10] was over 100 µM, the TGI [10] was over 100 µM and the GI50 [11] was over 100 µM. It also gave a TGI [11] of over 100 µM, a GI50 [12] of over 100 µM and a TGI [12] of over 100 µM. For the same molecule, the GI50 [13] was over 100 µM, the TGI [13] was over 100 µM and the GI50 [14] was over 100 µM. For the same molecule, the TGI [14] was over 100 µM, the GI50 [15] was over 100 µM and the TGI [15] was over 100 µM. It also gave a GI50 [16] of over 100 µM, a TGI [16] of over 100 µM and a GI50 [17] of over 100 µM. It also gave a TGI [17] of over 100 µM, a GI50 [18] of over 100 µM and a TGI [18] of over 100 µM. The GI50 [19] was over 72.5 µM, the TGI [19] was over 100 µM and the GI50 [20] was over 100 µM. For the same molecule, the TGI [20] was over 100 µM, the GI50 [21] was over 100 µM and the TGI [21] was over 100 µM. For the same molecule, the GI50 [22] was over 100 µM, the TGI [22] was over 100 µM and the GI50 [23] was over 100 µM. For the same molecule, the TGI [23] was over 100 µM, the GI50 [24] was 48.1 µM and the TGI [24] was over 100 µM. For the same molecule, the GI50 [25] was over 100 µM, the TGI [25] was over 100 µM and the GI50 [26] was over 100 µM. It also gave a TGI [26] of over 100 µM, a GI50 [27] of over 100 µM and a TGI [27] of over 100 µM. It also gave a GI50 [28] of over 100 µM, a TGI [28] of over 100 µM and a GI50 [29] of over 100 µM. The TGI [29] was over 100 µM, the GI50 [30] was over 100 µM and the TGI [30] was over 100 µM. For the same molecule, the GI50 [31] was over 100 µM, the TGI [31] was over 100 µM and the GI50 [32] was over 100 µM. It also gave a TGI [32] of over 100 µM, a GI50 [33] of over 100 µM and a TGI [33] of over 100 µM. For the same molecule, the GI50 [34] was 70.2 µM, the TGI [34] was over 100 µM and the GI50 [35] was over 100 µM. The TGI [35] was over 100 µM, the GI50 [36] was over 100 µM and the TGI [36] was over 100 µM. The GI50 [37] was over 100 µM, the TGI [37] was over 100 µM and the GI50 [38] was over 100 µM. For the same molecule, the TGI [38] was over 100 µM, the GI50 [39] was over 85.7 µM and the TGI [39] was over 100 µM. The GI50 [40] was over 100 µM, the TGI [40] was over 100 µM and the GI50 [41] was over 100 µM. It also gave a TGI [41] of over 100 µM, a GI50 [42] of over 100 µM and a TGI [42] of over 100 µM. For the same molecule, the GI50 [43] was over 100 µM, the TGI [43] was over 100 µM and the GI50 [44] was over 100 µM. It also gave a TGI [44] of over 100 µM, a GI50 [45] of 55.8 µM and a TGI [45] of over 100 µM. For the same molecule, the GI50 [46] was over 100 µM, the TGI [46] was over 100 µM and the GI50 [47] was over 100 µM. For the same molecule, the TGI [47] was over 100 µM.
